The first data set is described as follows: logP determination by HPLC on reversed-phase column, acidic range. The format is physicochemical. Particulars: HPLC reversed-phase column (C 18), 43° C., acidic range: 0.1% aqueous phosphoric acid, acetonitrile; marked a). The source says:
(a) Mobile phases for the determination in the acidic range: 0.1% aqueous phosphoric acid, acetonitrile; linear gradient from 10% acetonitrile to 90% acetonitrile—the corresponding measurement results in Table 1 are marked ^a).
Regarding `CCn1nc(C)c(C(=O)c2ccc(Cl)c(NC(=O)N3CCCO3)c2Cl)c1O` [Example 186], the logP entry is recorded as “(I-2) logP = 1.31^a)”.

As for `Cc1nn(C)c(O)c1C(=O)c1ccc(Cl)c(NC(=O)N2CCCO2)c1Cl` [Example 185], the logP entry was “(I-2) logP = 1.10^a)”.

Staying with this data set, now noted: marked a): acidic range, 0.1% aqueous phosphoric acid, acetonitrile gradient, 43° C.
As to `COC(=O)c1ccc(Cl)c(NC(=O)N2CCOCC2)c1Cl` [IIIa-6], the “logP a)” value was “logP = 1.34^a)”.

For `COC(=O)c1ccc(Cl)c(NC(=O)N2CCN(C)CC2)c1Cl` [IIIa-8], the “logP a)” value is reported as “logP = 0.50^a)”.

Turning to `COC(=O)c1ccc(C(F)(F)F)cc1NC(=O)N(C)OC` [IIIa-9], the “logP a)” value is listed as “logP = 3.35^a)”.

The data set is the same for the next values; noted with them: marked a): acidic range, 0.1% aqueous phosphoric acid/acetonitrile gradient, reversed-phase C 18 HPLC, 43° C.
Regarding `CCn1ncc(C(=O)c2ccc(Cl)c(NC(=O)N=c3sccn3C)c2Cl)c1O` [Example 176], the logP entry is “(I-2) logP = 1.39^a)”.

Consider `CCN1CCN(C(=O)Nc2c(Cl)ccc(C(=O)c3cnn(C)c3O)c2Cl)C1=O` [Example 12], for which the logP result is on record as “(I-2) logP = 1.63^a)”.

With `CCn1ncc(C(=O)c2ccc(Cl)c(NC(=O)N3CCCCO3)c2Cl)c1O` [Example 181], the logP entry is reported as “(I-2) logP = 1.63^a)”.

`CCn1ncc(C(=O)c2ccc(C(F)(F)F)cc2NC(=O)N2CCN(C)C2=O)c1O` [Example 11]: the logP result was “(I-1) logP = 2.42^a)”.

With `CCn1ncc(C(=O)c2ccc(Cl)c(NC(=O)NN3CCCCC3)c2Cl)c1O` [Example 172], the logP result is “(I-2) logP = 1.96^a)”.

Turning to `CCn1ncc(C(=O)c2ccc(Cl)c(NC(=O)N3CCCN(C4CCCCC4)C3=O)c2Cl)c1O` [Example 102], the logP entry is given as “(I-2) logP = 3.30^a)”.

For `CCn1ncc(C(=O)c2ccc(Cl)c(NC(=O)Nc3nnc(C)o3)c2Cl)c1O` [Example 174], the logP entry is “(I-2) logP = 1.20^a)”.

`CCn1ncc(C(=O)c2ccc(Cl)c(NC(=O)C3=NOCC3)c2Cl)c1O` [Example 148]: the logP result is listed as “(I-2) logP = 1.45^a)”.

As to `Cn1ncc(C(=O)c2ccc(Cl)c(NC(=O)NC3CC3)c2Cl)c1O` [Example 21], the logP result is given as “(I-2) logP = 0.99^a)”.

Regarding `CCn1ncc(C(=O)c2ccc(Cl)c(NC(=O)N3CCCCC3)c2Cl)c1O` [Example 106], the logP result is on record as “(I-2) logP = 1.75^a)”.

As to `Cn1ncc(C(=O)c2ccc(Cl)c(NC(=O)NN3CCOCC3)c2Cl)c1O` [Example 15], the logP entry is “(I-2) logP = 1.03^a)”.

With `CN1CCN(C(=O)Nc2cc(C(F)(F)F)ccc2C(=O)c2cnn(C)c2O)C1=O` [Example 17], the logP result was “(I-1) logP = 2.12^a)”.

Consider `CCn1ncc(C(=O)c2ccc(Cl)c(NC(=O)NCC(OC)OC)c2Cl)c1O` [Example 180], for which the logP entry is “(I-2) logP = 1.13^a)”.

As for `CCn1ncc(C(=O)c2ccc(Cl)c(NC(=O)c3ccco3)c2Cl)c1O` [Example 156], the logP result is “(I-2) logP = 1.54^a)”.

Take `CC(C)N1CCCN(C(=O)Nc2c(Cl)ccc(C(=O)c3cnn(C)c3O)c2Cl)C1=O` [Example 33]: the logP entry is on record as “(I-2) logP = 2.11^a)”.

`Cn1ncc(C(=O)c2ccc(Cl)c(NC(=O)NCC3CCCO3)c2Cl)c1O` (stereo not shown) [Example 41]: the logP entry is “(I-2) logP = 1.10^a)”.

As to `Cn1ncc(C(=O)c2ccc(Cl)c(NC(=O)Nc3nnc(C(F)(F)F)s3)c2Cl)c1O` [Example 47], the logP result is given as “(I-2) logP = 1.99^a)”.

On to `CN1CCCN(C(=O)Nc2c(Cl)ccc(C(=O)c3cnn(C)c3O)c2Cl)C1=O` [Example 9], for which the logP entry is reported as “(I-2) logP = 1.55^a)”.

In the case of `CCN1CCCN(C(=O)Nc2c(Cl)ccc(C(=O)c3cnn(C)c3O)c2Cl)C1=O` [Example 19], the logP entry is reported as “(I-2) logP = 1.83^a)”.

As for `CON(C)C(=O)Nc1cc(C(F)(F)F)ccc1C(=O)c1cnn(C)c1O` [Example 8], the logP entry was “(I-1) logP = 2.50^a)”.

Turning to `CCn1ncc(C(=O)c2ccc(NC(=O)N3CCN(C)C3=O)cc2OC)c1O` [Example 111], the logP entry is “(I-3) logP = 1.74^a)”.

Consider `Cn1ncc(C(=O)c2ccc(Cl)c(NC(=O)N3CCCO3)c2Cl)c1O` [Example 161], for which the logP result is listed as “(I-2) logP = 1.11^a)”.

As for `CCn1ncc(C(=O)c2ccc(Cl)c(N(C)C(=O)N3CCN(C)C3=O)c2Cl)c1O` [Example 99], the logP result is recorded as “(I-2) logP = 1.40^a)”.

With `CCn1ncc(C(=O)c2ccc(C(F)(F)F)cc2NC(=O)N(C)OC)c1O` [Example 7], the logP result is listed as “(I-1) logP = 2.93^a)”.

`CCn1ccsc1=NC(=O)Nc1c(Cl)ccc(C(=O)c2cnn(C)c2O)c1Cl` [Example 178]: the logP entry is listed as “(I-2) logP = 1.43^a)”.

Turning to `CCn1ncc(C(=O)c2ccc(Cl)c(NC(=O)NC3CC3)c2Cl)c1O` [Example 104], the logP result is “(I-2) logP = 1.25^a)”.

`Cn1ncc(C(=O)c2ccc(Cl)c(NC(=O)NN3CCCC3)c2Cl)c1O` [Example 16]: the logP entry is reported as “(I-2) logP = 1.17^a)”.

For `Cn1ncc(C(=O)c2ccc(Cl)c(NC(=O)C3=NOCC3)c2Cl)c1O` [Example 149], the logP entry was “(I-2) logP = 1.18^a)”.

As to `CCN1CCN(C(=O)Nc2c(Cl)ccc(C(=O)c3cnn(CC)c3O)c2Cl)C1=O` [Example 13], the logP result is given as “(I-2) logP = 1.86^a)”.

Regarding `Cc1nn(C)c(O)c1C(=O)c1ccc(Cl)c(NC(=O)N2CCCCO2)c1Cl` [Example 184], the logP entry was “(I-2) logP = 1.34^a)”.

As to `CCn1ncc(C(=O)c2ccc(Cl)c(NC(=O)N3CCCC3)c2Cl)c1O` [Example 110], the logP result was “(I-2) logP = 1.52^a)”.

For the molecule `CCn1ncc(C(=O)c2ccc(Cl)c(NC(=O)NN3CCCC3)c2Cl)c1O` [Example 100], the logP result is on record as “(I-2) logP = 1.42^a)”.

Regarding `CCn1ncc(C(=O)c2ccc(Cl)c(NC(=O)Nc3nnc(C(F)(F)F)s3)c2Cl)c1O` [Example 175], the logP result is “(I-2) logP = 2.24^a)”.

On to `Cn1ncc(C(=O)c2ccc(Cl)c(NC(=O)N3CCCCC3)c2Cl)c1O` [Example 107], for which the logP entry is on record as “(I-2) logP = 1.50^a)”.

As to `CCN1CCCN(C(=O)Nc2c(Cl)ccc(C(=O)c3cnn(CC)c3O)c2Cl)C1=O` [Example 18], the logP result is listed as “(I-2) logP = 2.11^a)”.

`Cn1ncc(C(=O)c2ccc(Cl)c(NC(=O)NN3CCCCC3)c2Cl)c1O` [Example 173]: the logP entry is listed as “(I-2) logP = 1.70^a)”.

`CCn1ncc(C(=O)c2ccc(Cl)c(NC(=O)NOC)c2Cl)c1O` [Example 108]: the logP result is given as “(I-2) logP = 1.06^a)”.

As to `CCn1ncc(C(=O)c2ccc(C(F)(F)F)cc2N(C)C(=O)N2CCN(C)C2=O)c1O` [Example 103], the logP result is on record as “(I-1) logP = 1.78^a)”.

In the case of `Cn1ncc(C(=O)c2ccc(Cl)c(NC(=O)N=c3sccn3C)c2Cl)c1O` [Example 177], the logP result was “(I-2) logP = 1.13^a)”.

With `CCONC(=O)Nc1c(Cl)ccc(C(=O)c2cnn(CC)c2O)c1Cl` [Example 128], the logP entry is “(I-2) logP = 1.33^a)”.

As for `CCONC(=O)Nc1c(Cl)ccc(C(=O)c2cnn(C)c2O)c1Cl` [Example 127], the logP result is given as “(I-2) logP = 1.07^a)”.

Turning to `CCn1ncc(C(=O)c2ccc(Cl)c(N(C)C(=O)N3CCN(C)C3=O)c2Cl)c1O` [Example 171], the logP entry is listed as “(I-2) logP = 2.88^a)”.

Still in this data set, the particulars now being: reversed-phase C18 HPLC column; pH=2.3.
As for `COC(=O)c1ccc(Cl)c(NC(=O)N2CCN(C)C2=O)c1Cl` [IIIa-1, methyl 2,4-dichloro-3-[[(3-methyl-2-oxo-1-imidazolidinyl)-carbonyl]-amino]-benzoate], the chromatographic logP was 1.94.

In turn, `CN1CCN(C(=O)Nc2c(Cl)ccc(C(=O)O)c2Cl)C1=O` [III-1, 2,4-dichloro-3-[[(3-methyl-2-oxo-1-imidazolidinyl)-carbonyl]-amino]-benzoic acid] showed a chromatographic logP of 1.35.

(Values after US7635664B2, “Herbicidal substituted benzoylpyrazoles” (Bayer CropScience AG, priority 2001, dated 2009).)
